Measured values taken from article PMC11876671, “Investigating blood–brain barrier penetration and neurotoxicity of natural products for central nervous system drug development” (Scientific Reports, 2025).
Structures can show the parent of a compound that is named as a salt. Where two headings read alike, the source gives them in different places.

Key:
[1] = tested on: GFP-labeled iPSC-derived human cortical glutamatergic neurons; experiment: cells; type: cell-based; details: for AC50: Homo sapiens, Neuron, Table S1, total neurite length, 48 hr, head prints no unit, µM per Table 1 and Fig. 5, read-out: TNL AC50 (48 hr)
[2] = in vitro; details: PAMPA, PAMPA-BBB Pe
[3] = for PAMPA-BBB Pe(10^-6 cm/sec): Table S3: compounds exhibiting low PAMPA-BBB permeability
[4] = Table S1, 60 min, room temperature, 0.05 mM
[5] = Table S2: compounds exhibiting moderate to high PAMPA-BBB permeability

Molecule: COc1cc(C)cc(O)c1 [3-methoxy-5-methylphenol]
- AC50 [1]: 13.4 µM
- Papp [2, 4]: 49.7 ×10⁻⁶ cm/s

Molecule: C/C(=C\COc1c2ccoc2cc2oc(=O)ccc12)CCC(O)C(C)(C)O (stereo not shown) [6,7-dihydroxy Bergamottin]
- AC50 [1]: 6.03 µM
- Papp [2, 4]: 54.7 ×10⁻⁶ cm/s

Molecule: COC1=C[C@@]23CCN(C)[C@H](Cc4ccc(OC)c(O)c42)C3=CC1=O [(-)-Sinoacutine]
- AC50 [1]: 15.2 µM
- Papp [2, 4]: 11.5 ×10⁻⁶ cm/s

Molecule: COC(=O)[C@@H]1[C@@H]2C[C@H]3c4[nH]c5ccccc5c4CCN3C[C@@H]2CC[C@@H]1O [Beta-yohimbine]
- AC50 [1]: 11.8 µM
- Papp [2]: 41.8 ×10⁻⁶ cm/s

Molecule: S=c1ccss1 [D3T, 3H-1,2-dithiole-3-thione]
- AC50 [1]: 51.2 µM
- Papp [2, 4]: 97.8 ×10⁻⁶ cm/s

Molecule: COc1cc2c(c(OC)c1OC)-c1c(cc(OC)c(OC)c1OC)C[C@H](C)[C@H](C)C2 [Deoxyschizandrin]
- AC50 [1]: 15.9 µM
- Papp [2, 4]: 171 ×10⁻⁶ cm/s

Molecule: O=c1c(-c2ccc(O)cc2)coc2cc(O)cc(O)c12 [Genistein]
- AC50 [1]: 33.4 µM
- Papp [2, 4]: 35.4 ×10⁻⁶ cm/s
- Papp [2, 5]: 35 ×10⁻⁶ cm/s

Molecule: CCOc1ccc(O)cc1 [Hydroquinone monoethyl ether]
- AC50 [1]: 13.6 µM
- Papp [2, 4]: 35 ×10⁻⁶ cm/s

Molecule: CC(C)=CCOc1c2occc2cc2ccc(=O)oc12 [Imperatorin]
- AC50 [1]: 16.7 µM
- Papp [2, 4]: 160 ×10⁻⁶ cm/s

Molecule: CO[C@@H]1[C@@H](O[C@@H]2O[C@H](C)[C@@H](O[C@H]3C[C@@](C)(O)[C@@H](OC(=O)CC(C)C)[C@H](C)O3)[C@H](N(C)C)[C@H]2O)[C@@H](CC=O)C[C@@H](C)C(=O)/C=C/[C@@H]2O[C@H]2C[C@@H](C)OC(=O)C[C@H]1OC(C)=O [Magnamycin A/Carbomycin A]
- AC50 [1]: 27.1 µM
- Papp [2, 4]: 31.9 ×10⁻⁶ cm/s
- Papp [2, 5]: 32 ×10⁻⁶ cm/s

Molecule: CC1(C)OC1COc1c2occc2cc2ccc(=O)oc12 (stereo not shown) [NCGC00160222-01]
- AC50 [1]: 24.5 µM
- Papp [2, 4]: 210 ×10⁻⁶ cm/s

Molecule: CN1CCC2=C[C@@H](O)[C@@H]3OC(=O)c4cc5c(cc4[C@H]3C21)OCO5 (stereo partly shown) [NCGC00160234-01]
- AC50 [1]: 2.22 µM
- Papp [2, 4]: 22.3 ×10⁻⁶ cm/s
- Papp [2, 5]: 22 ×10⁻⁶ cm/s

Molecule: COc1ccc([C@H]2COc3c(ccc(O)c3OC)C2)c(OC)c1O [NCGC00179004-02]
- PAMPA-BBB Pe [3, 5]: 127 10^-6 cm/sec

Molecule: CC(=O)O[C@H]1C[C@@H](OC(C)=O)C(C)(C)C2C[C@@H](OC(C)=O)[C@]3(C)C(CC[C@@]4(C)[C@H](c5ccoc5)OC(=O)[C@H]5O[C@]543)[C@]21C (stereo partly shown) [NCGC00179019-03]
- PAMPA-BBB Pe(10^-6 cm/sec) [3]: 2.7 10^-6 cm/sec

Molecule: C=C(C)[C@H]1COc2cc3oc(=O)ccc3cc2O1 [NCGC00179107-03]
- PAMPA-BBB Pe [3, 5]: 152 10^-6 cm/sec

Molecule: CC1(C)C(=O)C=C[C@@]2(C)C1CC(=O)[C@]1(C)C2CC[C@@]2(C)[C@H](c3ccoc3)OC(=O)[C@H]3O[C@]321 (stereo partly shown) [NCGC00179119-02]
- PAMPA-BBB Pe(10^-6 cm/sec) [3]: <1 10^-6 cm/sec

Molecule: CC1(C)C(=O)C=C[C@@]2(C)C1C[C@@H](O)[C@]1(C)C2CC[C@@]2(C)[C@H](c3ccoc3)OC(=O)[C@H]3O[C@]321 (stereo partly shown) [NCGC00179150-03]
- PAMPA-BBB Pe [3, 5]: 108 10^-6 cm/sec

Molecule: COc1cc(C(=O)OC2C[C@H]3CC[C@@H](C2)N3C)ccc1O (stereo partly shown) [NCGC00179405-02]
- PAMPA-BBB Pe(10^-6 cm/sec) [3]: 8.5 10^-6 cm/sec

Molecule: CO[C@H]1C=C2CCN(C)[C@H]2C2c3cc4c(cc3C(=O)O[C@@H]21)OCO4 (stereo partly shown) [NCGC00179416-02]
- PAMPA-BBB Pe [3, 5]: 19 10^-6 cm/sec

Molecule: COc1c2ccoc2nc2c(OC)c(OC[C@@H](O)C(C)(C)O)ccc12 [NCGC00179458-02]
- PAMPA-BBB Pe [3, 5]: 12 10^-6 cm/sec

Molecule: COc1cc2c(cc1O)[C@@H]1Cc3ccc(OC)c(O)c3CN1CC2 [NCGC00179539-03]
- PAMPA-BBB Pe [3, 5]: 78 10^-6 cm/sec

Molecule: O=C(CO)c1c[nH]c2ccccc12 [NCGC00182562-01]
- PAMPA-BBB Pe(10^-6 cm/sec) [3]: 6.7 10^-6 cm/sec

Molecule: Cc1c(O)c2c(c(C(=O)/C=C/c3ccccc3)c1O)OC(C)(C)C=C2 [NCGC00187465-01]
- PAMPA-BBB Pe(10^-6 cm/sec) [3]: <1 10^-6 cm/sec

Molecule: CC1(C)C=Cc2c(ccc(C(=O)/C=C/c3ccccc3)c2O)O1 [NCGC00187466-02]
- PAMPA-BBB Pe [3, 5]: 10 10^-6 cm/sec

Molecule: COc1cc(O)c2c(c1)/C=C/C[C@H](O)[C@H](O)[C@H](O)CCC[C@H](C)OC2=O [NCGC00189513-01]
- PAMPA-BBB Pe [3, 5]: 245 10^-6 cm/sec

Molecule: CC1=CC(=O)/C(=C(/C)O)C(=O)O1 [NCGC00254206-01]
- PAMPA-BBB Pe(10^-6 cm/sec) [3]: 3.3 10^-6 cm/sec

Molecule: NC(=O)Nc1ccc(Cl)c(Cl)c1 [NCGC00255466-01]
- PAMPA-BBB Pe [3, 5]: 148 10^-6 cm/sec

Molecule: CC(=O)NCCc1c[nH]c2ccccc12 [NCGC00260786-01]
- PAMPA-BBB Pe(10^-6 cm/sec) [3]: 5.7 10^-6 cm/sec

Molecule: CN(N=O)c1cc(O)ccc1O [NCGC00261088-01]
- PAMPA-BBB Pe(10^-6 cm/sec) [3]: <1 10^-6 cm/sec

Molecule: COc1cc(C(O)CO)ccc1OS(=O)(=O)[O-].[K+] (stereo not shown) [NCGC00261311-01]
- PAMPA-BBB Pe(10^-6 cm/sec) [3]: <1 10^-6 cm/sec

Molecule: C=C/C(C)=C/[C@@]1(C)SC(=O)C(C)=C1O [NCGC00261593-01]
- PAMPA-BBB Pe(10^-6 cm/sec) [3]: <1 10^-6 cm/sec

Molecule: c1ccc2c3c([nH]c2c1)[C@H]1[C@@H]2CC[C@@H]([C@@H]4CCCN[C@@H]42)N1CC3 [NCGC00262532-02]
- PAMPA-BBB Pe(10^-6 cm/sec) [3]: <1 10^-6 cm/sec

Molecule: C=CC(O)C1OC1C=CC1OC1C(C)O (stereo not shown) [NCGC00263647-01]
- PAMPA-BBB Pe(10^-6 cm/sec) [3]: <1 10^-6 cm/sec

Molecule: O=C(OC[C@H]1O[C@H](OC(=O)c2cc(O)c(O)c(OC(=O)c3cc(O)c(O)c(O)c3)c2)[C@H](OC(=O)c2cc(O)c(O)c(OC(=O)c3cc(O)c(O)c(O)c3)c2)[C@@H](OC(=O)c2cc(O)c(O)c(OC(=O)c3cc(O)c(O)c(O)c3)c2)[C@@H]1OC(=O)c1cc(O)c(O)c(OC(=O)c2cc(O)c(O)c(O)c2)c1)c1cc(O)c(O)c(OC(=O)c2cc(O)c(O)c(O)c2)c1 [NCGC00263877-02]
- PAMPA-BBB Pe(10^-6 cm/sec) [3]: <1 10^-6 cm/sec

Molecule: COc1ccc(-c2cc(=O)c3c(O)cc(OC)c(OC)c3o2)c(OC)c1 [NCGC00263973-02]
- PAMPA-BBB Pe [3, 5]: 201 10^-6 cm/sec

Molecule: CC(=O)NCCc1ccc(O)c(-c2c(O)c(O)c3c(c2O)C(=O)c2c(cc(O)c(C(=O)O)c2C(=O)O)C3=O)c1 [NCGC00263986-01]
- PAMPA-BBB Pe(10^-6 cm/sec) [3]: <1 10^-6 cm/sec

Molecule: COC(=O)[C@H](Cc1ccccc1)NC(=O)/C(=C1\OC(=O)C(c2ccccc2)=C1O)c1ccccc1 [NCGC00263991-01]
- PAMPA-BBB Pe(10^-6 cm/sec) [3]: <1 10^-6 cm/sec

Molecule: O=C1CC[C@]23/C=C/C(=O)NCCCCNCCCNC(=O)/C=C/c4ccc(c2c4)O[C@@H]3C1 [NCGC00263997-01]
- PAMPA-BBB Pe(10^-6 cm/sec) [3]: <1 10^-6 cm/sec

Molecule: COC(=O)C[C@H]1C2(C)C[C@]34O[C@@]5(C)O[C@@]6([C@H](OC(C)=O)C(OC(C)=O)[C@]7(C)C(/C(=C(/O)C(C)C)C(=O)O[C@H]7c7ccoc7)[C@@]6(O5)[C@H](OC(C)=O)[C@@]3(O)C2OC(=O)C(C)C)[C@]14C (stereo partly shown) [NCGC00264007-02]
- PAMPA-BBB Pe [3, 5]: 28 10^-6 cm/sec

Molecule: COc1ccc(-c2oc3cc(OC)c(OC)c(OC)c3c(=O)c2OC)cc1 [NCGC00264011-02]
- PAMPA-BBB Pe [3, 5]: 308 10^-6 cm/sec

Molecule: C[N+]12CC[C@@]34c5ccccc5N5C(=O)C[C@@H]6OCC=C(C1)[C@H](CC32)[C@@H]6C54 (stereo partly shown) [NCGC00264058-02]
- PAMPA-BBB Pe(10^-6 cm/sec) [3]: <1 10^-6 cm/sec

Molecule: COc1cc(/C=C2/C(=O)Nc3ccccc32)cc(OC)c1O [NCGC00343740-01]
- PAMPA-BBB Pe(10^-6 cm/sec) [3]: 4.8 10^-6 cm/sec

Molecule: COC(=O)C1=CC[C@@]23CC[C@@H]([C@@](C)(/C=C/C=C(\C)C(=O)O)OC2=O)[C@@]3(OC(C)=O)CC1 [NCGC00344122-04]
- PAMPA-BBB Pe(10^-6 cm/sec) [3]: <1 10^-6 cm/sec

Molecule: O=C1c2ccccc2-[n+]2ccc3c([nH]c4ccccc43)c21 [NCGC00346951-03]
- PAMPA-BBB Pe(10^-6 cm/sec) [3]: <1 10^-6 cm/sec

Molecule: CCCc1cc(=O)c2ccccc2n1C [NCGC00351153-01]
- PAMPA-BBB Pe [3, 5]: 137 10^-6 cm/sec

Molecule: COc1ccccc1O[C@@H]1O[C@H](CO)[C@H](O)[C@H](O)[C@H]1O [NCGC00351878-01]
- PAMPA-BBB Pe(10^-6 cm/sec) [3]: 1.5 10^-6 cm/sec

Molecule: OC[C@H]1O[C@@H](Oc2cccc3ccccc23)[C@H](O)[C@@H](O)[C@H]1O [NCGC00351880-01]
- PAMPA-BBB Pe(10^-6 cm/sec) [3]: <1 10^-6 cm/sec

Molecule: OC[C@H]1O[C@@H](n2cnc3cncnc32)[C@H](O)[C@@H]1O [NEBULARINE¦NEBULARINE]
- PAMPA-BBB Pe(10^-6 cm/sec) [3]: <1 10^-6 cm/sec

Molecule: COc1ccc2c(c1OC)C(=O)O[C@@H]2[C@H]1c2c(cc3c(c2OC)OCO3)CCN1C [NOSCAPINE HYDROCHLORIDE]
- PAMPA-BBB Pe ([3]; PAMPA): 75 10^-6 cm/sec

Molecule: O=C(/C=C/c1ccc(O)c(O)c1)OCCc1ccccc1 [PHENETHYL CAFFEATE]
- PAMPA-BBB Pe [3, 5]: >1000 10^-6 cm/sec

Molecule: Cn1c(=O)c2c(ncn2C)n(C)c1=O [caffeine, reference compound]
- PAMPA-BBB permeability category ([3]; PAMPA): low permeability

Molecule: NC(=O)N1c2ccccc2C=Cc2ccccc21 [carbamazepine, reference compound]
- PAMPA-BBB permeability category ([3]; PAMPA): moderate permeability

Molecule: CC(=O)[C@H]1CC[C@H]2[C@@H]3CCC4=CC(=O)CC[C@]4(C)[C@H]3CC[C@]12C [progesterone, reference compound]
- PAMPA-BBB permeability category ([3]; category in words): high permeability

Molecule: C=C(C)[C@H]1Cc2c(ccc3c2O[C@@H]2COc4cc(OC)c(OC)cc4[C@@H]2C3=O)O1 [rotenone, reference compound]
- inhibition of cortical neurite outgrowth (total neurite length) ([1]; 24 and 48 h treatment, in words): inhibited cortical neurite outgrowth in a concentration-dependent manner

Molecule: \LYCORINE HYDROCHLORIDE
- PAMPA-BBB Pe(10^-6 cm/sec) [3]: 3.2 10^-6 cm/sec
